Data set [1] has as its system human red blood cells. In words: Hemolytic effect on human red blood cells in vitro (absorbance at 540 nm). Format: cell-based. The conditions noted are these: 37° C., 1 h, FIG. 1. As to the method: To evaluate the hemolytic effect of the compounds disclosed herein on red blood cells in vitro, human whole blood (100 μL) was taken and mixed with a phosphate buffer. The mixture was centrifuged at 4° C. for 10 min and the supernatant was discarded. The red blood cells were resuspended in PBS buffer (900 μL) and centrifuged at 4° C. for 10 min with the supernatant discarded, and the procedures above were repeated once. The test example compounds were dissolved in 1×PBS buffer to a final concentration of 100 μg/mL. The red blood cells were resuspended in solutions of various test example compounds, an octylphenoxy poly(ethyleneoxy)ethanol-100 solution or PBS buffer, and incubated at 37° C. for 1 h. After incubation, the cells were centrifuged at 4° C. for 10 min and the supernatant (100 μL) was pipetted and transferred to a 96-well plate. The absorbance at 540 nm was detected for evaluating the hemolytic effect of the test example compounds on red blood cells in vitro.

The subject of data set [2] is rat peritoneal mast cells. Nature of the data set: In vitro histamine release in rat peritoneal mast cells (histamine ELISA). Format: cell-based. The conditions noted are these: for Relative fold of histamine release in vitro: test compound final concentration 10 μM, 15 min at 37° C., relative to PBS buffer (1.00). How it is done: To evaluate the in vitro histamine release levels induced by some of the test example compounds, rat peritoneal mast cells were collected by lavaging rat peritoneum with a lavage buffer (cold HBSS+25 mM HEPES containing heparin 5 U/mL, pH 7.4). After collection, the cells were centrifuged, and the lavage buffer was discarded. The cells were resuspended and washed twice with a stimulation buffer (HBSS+25 mM HEPES+1 mM CaCl2), pH 7.4). The cells were plated at a density of 10^5 cell/well (200 μL/well) and incubated at 37° C. for 15 min with positive control compound 48/80 (final concentration: 4 μg/mL), test example compounds (final concentration: 10 μM) or vehicle control. The cells were centrifuged, and cell supernatant was collected and tested for histamine concentration according to LDN Histamine ELISA kit (BAE-1000) instructions.
Background: An ELISA detects its analyte on a solid surface through an enzyme-linked reagent.

Data set [3] has as its target T1, human calcium-sensing receptor (CaSR) (Homo sapiens, UniProt P41180).
T1 construct: host or cells: HEK293
T1 sequence (P41180 20-1078): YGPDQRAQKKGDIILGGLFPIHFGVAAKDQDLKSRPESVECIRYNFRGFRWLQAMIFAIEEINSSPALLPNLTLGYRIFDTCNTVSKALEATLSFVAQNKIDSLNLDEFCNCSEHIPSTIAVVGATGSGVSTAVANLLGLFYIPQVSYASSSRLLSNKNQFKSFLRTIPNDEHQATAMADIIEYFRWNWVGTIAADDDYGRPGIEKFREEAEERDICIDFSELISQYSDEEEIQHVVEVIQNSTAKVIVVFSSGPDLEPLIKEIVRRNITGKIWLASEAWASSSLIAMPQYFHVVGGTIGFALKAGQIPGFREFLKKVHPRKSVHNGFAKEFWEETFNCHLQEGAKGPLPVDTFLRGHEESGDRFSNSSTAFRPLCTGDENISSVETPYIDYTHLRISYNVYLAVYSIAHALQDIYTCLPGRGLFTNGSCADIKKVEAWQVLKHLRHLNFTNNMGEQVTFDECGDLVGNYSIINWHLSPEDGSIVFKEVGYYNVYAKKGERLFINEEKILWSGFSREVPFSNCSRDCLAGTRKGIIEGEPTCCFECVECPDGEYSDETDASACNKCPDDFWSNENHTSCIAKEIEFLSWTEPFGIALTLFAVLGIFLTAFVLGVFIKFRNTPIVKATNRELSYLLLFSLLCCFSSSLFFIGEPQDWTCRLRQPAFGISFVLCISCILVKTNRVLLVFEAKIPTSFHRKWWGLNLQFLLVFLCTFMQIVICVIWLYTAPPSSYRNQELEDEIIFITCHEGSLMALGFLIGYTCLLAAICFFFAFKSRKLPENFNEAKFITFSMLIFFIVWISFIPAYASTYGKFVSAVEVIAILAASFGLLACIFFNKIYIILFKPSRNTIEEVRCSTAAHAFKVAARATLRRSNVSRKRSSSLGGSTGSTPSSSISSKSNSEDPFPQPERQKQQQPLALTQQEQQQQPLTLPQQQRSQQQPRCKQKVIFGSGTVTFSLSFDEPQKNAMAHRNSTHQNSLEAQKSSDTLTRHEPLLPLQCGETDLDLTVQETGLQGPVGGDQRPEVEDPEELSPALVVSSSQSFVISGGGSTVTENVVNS
Nature of the data set: Agonist activity on human calcium-sensing receptor (IP-One HTRF in stably transfected HEK293/CaSR cells). Type of data set: cell-based. The conditions noted are these: HEK293/CaSR cells, IP-One production, 60 min at 37° C., CaCl2 1.2 mM; read-out: EC50 for calcium-sensing receptor. How it is done: 3.1.1 Objective: The test example is intended to measure the agonist activity of compounds 1-38 on the human calcium-sensing receptor (CaSR).
Stably transfected HEK293/CaSR cells (source: Pharmaron) were cultured in a complete medium (composition: DMEM, high glucose+10% FBS+2 mM GlutaMAX+1× Penicillin-Streptomycin+200 μg/mL Hygromycin B) and incubated at 37° C./5% CO2 till 70%-90% cell confluence. The cells were digested with TrypLE, inoculated into 384-well cell culture plates, and cultured overnight at 37° C./5% CO2. After buffer exchange, stimulation buffer (HEPES 10 mM, MgCl2 0.5 mM, KCl 4.2 mM, NaCl 146 mM, glucose 5.5 mM, LiCl 50 mM, CaCl2 1.2 mM) and various concentrations of the test example compounds were added and incubated at 37° C. for 60 min. Production of IP-One in cells was detected according to the procedures in the Cisbio IP-One Tb kit instructions. The EC50 values of various test example compounds in influencing human calcium-sensing receptor was calculated by software after the raw data of the example compounds were collected, so as to evaluate the agonist activity of the example compounds on human calcium-sensing receptor.
HTRF signal was read by an EnVision detector with an excitation wavelength of 320 nm and emission wavelengths of 620 nm and 665 nm. The signal ratio (665 nm/620 nm×10,000) was calculated and fitted non-linearly to the sample concentration in GraphPad Prism 6 using a four-parameter equation to give EC50 values of the test example compounds 1-38.
(In general: TR-FRET usually uses a lanthanide donor and a delayed reading to cut background.)

In data set [4] the test system is 5/6 nephrectomized rats. Nature of the data set: In vivo efficacy in 5/6 nephrectomized rat model after continuous administration (plasma parathyroid hormone, serum calcium). An excerpt:
3.5.1 Objective: to evaluate the efficacy of some of the compounds disclosed herein in reducing plasma parathyroid hormone level and serum calcium level after continuous administration in a 5/6 nephrectomized rat model.
The rats were adapted. After anesthesia, ⅔ of the left kidney was surgically resected, and after 1 week of recovery, the right kidney was resected to establish the 5/6 nephrectomized rat model. After the second resection, the animals were normally fed for 2 weeks, tested for creatinine (CREA) and plasma parathyroid hormone level, and randomized as per the parathyroid hormone level into 4 groups of 10, including normal saline group, compound 17—low dose group, compound 17—high dose group and etelcalcetide group. After randomization, the normal saline group, compound 17—low dose group, compound 17—high dose group and etelcalcetide group were respectively administered with 1 dose of normal saline, 1 mg/kg of compound 17, 2 mg/kg of compound 17 and 1 mg/kg of etelcalcetide through the tail vein daily for 28 days. During the treatment period, parameters such as animal weight, plasma parathyroid hormone level and serum calcium were detected. The first day of treatment was taken as day 1.

Square brackets hold non-standard residues; d marks the D form. Peptide text beside a SMILES is read from it. * marks the point of attachment. dPhe(4-Me) = Cc1ccc(C[C@@H](N)C(=O)O)cc1; Cys(free,S-linked) = N[C@@H](CS*)C(=O)O; d(hLeu) = CC(C)CC[C@@H](N)C(=O)O; dPhg = N[C@@H](C(=O)O)c1ccccc1

Consider “octylphenoxy poly(ethyleneoxy)ethanol-100 [reference compound]”, for which the “hemolytic effect on red blood cells” value in data set [1] (positive control solution) is listed as “significant hemolytic effect”.
Consider `CC(=O)N[C@H](CSSC[C@H](N)C(=O)O)C(=O)N[C@H](CCCNC(=N)N)C(=O)N[C@H](CCCNC(=N)N)C(=O)N[C@@H](C(=O)N[C@H](CCCNC(=N)N)C(=O)N[C@H](CO)C(=O)N[C@H](CCCNC(=N)N)C(N)=O)C(C)C` [Compound 29, Ac-c(C)-r-r-v-r-s-r-NH2] (Ac-[dC](Cys(free,S-linked))[dR][dR][dV][dR][dS][dR]-NH2), for which, in data set [2] (10 μM, comparison with etelcalcetide), the “histamine release levels in rat peritoneal mast cells in vitro relative to etelcalcetide” value is “reduction in histamine release levels”. Moreover, in data set [2], the “Relative fold of histamine release in vitro” value (“Relative fold” below) is 0.99. Also, the EC50 in data set [3] amounted to 9.8 µM. Moreover, in data set [1] (100 μg/mL in PBS), the “hemolytic effect on red blood cells” value was “no significant hemolytic effect”.
For `CC(=O)N[C@H](CSSC[C@H](N)C(=O)O)C(=O)N[C@H](C)C(=O)N[C@H](CCCNC(=N)N)C(=O)N[C@H](CCCNC(=N)N)C(=O)N[C@H](CCCNC(=N)N)C(=O)N[C@H](C)C(=O)N[C@H](CCCNC(=N)N)C(N)=O` [Etelcalcetide, Ac-c(C)-a-r-r-r-a-r-NH2, reference compound], the serum calcium reduction result in data set [4] (after administration on days 1, 14 and 28) is “reversible serum calcium reduction”. For the same compound, in data set [4] (minimum of serum calcium on days 14 and 28 compared to day 1), the “extent of serum calcium reduction with the period of treatment” value is recorded as “did not increase with the period of treatment”. Also, the “Relative fold” value in data set [2] is on record as 1.70. Moreover, the EC50 in data set [3] came out at 6.78 µM.
In the case of `CC(=O)N[C@H](CSSC[C@H](N)C(=O)O)C(=O)N[C@H](CCCNC(=N)N)C(=O)N[C@H](CCCNC(=N)N)C(=O)N[C@H](Cc1ccc(C)cc1)C(=O)N[C@H](CCCNC(=N)N)C(=O)N[C@H](C)C(=O)N[C@H](CCCNC(=N)N)C(N)=O` [Compound 12, Ac-c(C)-r-r-[D-Phe(4-CH3)]-r-a-r-NH2] (Ac-[dC](Cys(free,S-linked))[dR][dR][dPhe(4-Me)][dR][dA][dR]-NH2), the “Relative fold” value in data set [2] was 2.81. The EC50 in data set [3] came out at 1.28 µM. Moreover, the “hemolytic effect on red blood cells” value in data set [1] (100 μg/mL in PBS) is “no significant hemolytic effect”.
On to `CC(=O)N[C@H](CSSC[C@H](N)C(=O)O)C(=O)N[C@H](CCCNC(=N)N)C(=O)N[C@H](CCCNC(=N)N)C(=O)N[C@H](CO)C(=O)N[C@H](CCCNC(=N)N)C(=O)NCC(=O)N[C@H](CCCNC(=N)N)C(N)=O` [Compound 22, Ac-c(C)-r-r-s-r-G-r-NH2] (Ac-[dC](Cys(free,S-linked))[dR][dR][dS][dR]G[dR]-NH2), for which the “Relative fold” value in data set [2] amounted to 1.63. Moreover, in data set [3], the EC50 came to 15.4 µM.
Consider `CC(=O)N[C@H](CSSC[C@H](N)C(=O)O)C(=O)N[C@H](CCCNC(=N)N)C(=O)N[C@H](CCCNC(=N)N)C(=O)N[C@H](Cc1c[nH]cn1)C(=O)N[C@H](CCCNC(=N)N)C(=O)N[C@H](CO)C(=O)N[C@H](CCCNC(=N)N)C(N)=O` [Compound 27, Ac-c(C)-r-r-h-r-s-r-NH2] (Ac-[dC](Cys(free,S-linked))[dR][dR][dH][dR][dS][dR]-NH2), for which, in data set [2], the “Relative fold” value was determined as 2.23. For the same compound, the EC50 in data set [3] was 10.8 µM.
For `CC(=O)N[C@H](CSSC[C@H](N)C(=O)O)C(=O)N[C@H](CCCNC(=N)N)C(=O)N[C@H](CCCNC(=N)N)C(=O)N[C@H](CCC(C)C)C(=O)N[C@H](CCCNC(=N)N)C(=O)N[C@H](CO)C(=O)N[C@H](CCCNC(=N)N)C(N)=O` [Compound 33, Ac-c(C)-r-r-(D-hLeu)-r-s-r-NH2] (Ac-[dC](Cys(free,S-linked))[dR][dR][d(hLeu)][dR][dS][dR]-NH2) the same measures were 2.50 and 5.03 µM.
For `CC(=O)N[C@H](CSSC[C@H](N)C(=O)O)C(=O)N[C@@H](C(=O)N[C@H](CCCNC(=N)N)C(=O)N[C@H](CCCNC(=N)N)C(=O)N[C@H](CCCNC(=N)N)C(=O)N[C@H](C)C(=O)N[C@H](CCCNC(=N)N)C(N)=O)c1ccccc1` [Compound 1, Ac-c(C)-(D-Phg)-r-r-r-a-r-NH2] (Ac-[dC](Cys(free,S-linked))[dPhg][dR][dR][dR][dA][dR]-NH2) the same measures were 1.50 and 15.7 µM.
The like results for `CC(=O)N[C@H](CSSC[C@H](N)C(=O)O)C(=O)N[C@H](Cc1ccc(O)cc1)C(=O)N[C@H](CCCNC(=N)N)C(=O)N[C@H](CCCNC(=N)N)C(=O)N[C@H](CCCNC(=N)N)C(=O)N[C@H](C)C(=O)N[C@H](CCCNC(=N)N)C(N)=O` [Compound 4, Ac-c(C)-(D-Tyr)-r-r-r-a-r-NH2] (Ac-[dC](Cys(free,S-linked))[dY][dR][dR][dR][dA][dR]-NH2) were, in that order, 3.94 and 6.92 µM.
As for `CC(=O)N[C@H](CSSC[C@H](N)C(=O)O)C(=O)N[C@H](CCCNC(=N)N)C(=O)N[C@H](CCCNC(=N)N)C(=O)N[C@H](CCC(N)=O)C(=O)N[C@H](CCCNC(=N)N)C(=O)N[C@H](CO)C(=O)N[C@H](CCCNC(=N)N)C(N)=O` [Compound 26, Ac-c(C)-r-r-q-r-s-r-NH2] (Ac-[dC](Cys(free,S-linked))[dR][dR][dQ][dR][dS][dR]-NH2), the “Relative fold” value in data set [2] worked out at 1.73. The 50% effective concentration (EC50) in data set [3] came to 9.24 µM.

As a reminder, the EC50 is the concentration that produces a half-maximal response.

(Values after US20230041996A1, “CALCIUM-SENSING RECEPTOR AGONIST COMPOUND AND APPLICATION THEREOF” (BEIJING TUO JIE BIOPHARMACEUTICAL CO. LTD., priority 2019, published 2023).)
